The first data set in a line: Log of liquid dish neat product liquid-air partition coefficient. It is filed as physicochemical.
Settings: not given
With `CC(O)C(C)/C=C1\C[C@H]2C[C@@H]1[C@@H]1C=CC[C@H]21` (stereo partly shown) [Material 359], the “Comment Code: Log of liquid dish neat product liquid-air partition coefficient” value (“Comment Code: Log” below) is listed as “K (Log of liquid dish neat product liquid-air partition coefficient greater than or equal to 7)”.
Still for that read-out and setting: then `COc1ccc(COC(C)=O)cc1` [Material 664], with “K (Log of liquid dish neat product liquid-air partition coefficient greater than or equal to 7)”; and `CC(C)C(=O)OC1CC2CCC1(C)C2(C)C` (stereo not shown) [Material 229], with “K (Log of liquid dish neat product liquid-air partition coefficient greater than or equal to 7)”; and `CC1=C2CC(C(C)(C)O)CCC2(C)CCC1` (stereo not shown) [Material 329], with “K (Log of liquid dish neat product liquid-air partition coefficient greater than or equal to 7)”.
On the same count and under the same terms, the same measure for `C=C1C2CCC(C)(C)C1CCC(OC)C2` (stereo not shown) [Material 7]: “K (Log of liquid dish neat product liquid-air partition coefficient greater than or equal to 7)”.
Same read-out and setting: the same measure for `C=CCOCCc1ccccc1` [Material 744]: “K (Log of liquid dish neat product liquid-air partition coefficient greater than or equal to 7)”; for `CC=Cc1ccc(O)c(OC)c1` [Material 214]: “K (Log of liquid dish neat product liquid-air partition coefficient greater than or equal to 7)”.
`CCC(C)C(=O)N(C)c1ccccc1` (stereo not shown) [Material 314]: the “Comment Code: Log” value is on record as “K (Log of liquid dish neat product liquid-air partition coefficient greater than or equal to 7)”.
As to `CC1OC(C)C2Cc3ccccc3C2O1` (stereo not shown) [Material 141], the “Comment Code: Log” value is given as “K (Log of liquid dish neat product liquid-air partition coefficient greater than or equal to 7)”.
Take `COc1ccc(C=O)cc1OC` [Material 1118]: the “Comment Code: Log” value is “K (Log of liquid dish neat product liquid-air partition coefficient greater than or equal to 7)”.
Take `CCCOC(=O)[C@H](C)OC(C)(C)CC` [Material 1030]: the “Comment Code: Log” value is on record as “K (Log of liquid dish neat product liquid-air partition coefficient greater than or equal to 7)”.
On the same count and under the same terms, the same measure for `CC1=CC(C)C2C(CCC(C)(C)C2O)C1` (stereo not shown) [Material 39]: “K (Log of liquid dish neat product liquid-air partition coefficient greater than or equal to 7)”.
`CCOCCOCCO` [Material 579]: the “Comment Code: Log” value was “K (Log of liquid dish neat product liquid-air partition coefficient greater than or equal to 7)”.
Same read-out and setting: then `CCC(C)(O)/C=C/C=C(C)C` (stereo not shown) [Material 81], with “K (Log of liquid dish neat product liquid-air partition coefficient greater than or equal to 7)”; and `C=C1[C@H]2CC[C@H](CO)[C@@]23CC[C@H](C3)C1(C)C` [Material 183], with “K (Log of liquid dish neat product liquid-air partition coefficient greater than or equal to 7)”; and `C/C=C(\C)C(=O)OCCc1ccccc1` [Material 960], with “K (Log of liquid dish neat product liquid-air partition coefficient greater than or equal to 7)”.

Still in this data set, the particulars now being: code letter within the Comment Code cell.
In the case of `CC(O)C(C)/C=C1\C[C@H]2C[C@@H]1[C@@H]1C=CC[C@H]21` (stereo partly shown) [Material 359], the “Log of liquid dish neat product liquid-air partition coefficient (Comment Code K/L)” value (“Log … (Comment Code K/L)” for short) is listed as “K (Log of liquid dish neat product liquid-air partition coefficient greater than or equal to 7)”.
Still for that read-out and setting: the same measure for `CC(=O)OCC1CC=C(CCC=C(C)C)CC1` (stereo not shown) [Material 74]: “K (Log of liquid dish neat product liquid-air partition coefficient greater than or equal to 7)”.
Still for that read-out and setting: the same measure for `O=COCC=Cc1ccccc1` [Material 551]: “K (Log of liquid dish neat product liquid-air partition coefficient greater than or equal to 7)”.
With `CCCCCCC(=O)OCc1ccco1` [Material 339], the “Log … (Comment Code K/L)” value is “K (Log of liquid dish neat product liquid-air partition coefficient greater than or equal to 7)”.
Same read-out and setting: the same measure for `Cc1ccc(C(C)(C)O)cc1` [Material 4]: “K (Log of liquid dish neat product liquid-air partition coefficient greater than or equal to 7)”.
Still for that read-out and setting: then `CCOC(=O)C1C(CC)=CCCC1(C)C` (stereo not shown) [Material 294], with “K (Log of liquid dish neat product liquid-air partition coefficient greater than or equal to 7)”.
The same measure, in the same setting: the same measure for `CC(C)C(=O)OC1CC2CCC1(C)C2(C)C` (stereo not shown) [Material 229]: “K (Log of liquid dish neat product liquid-air partition coefficient greater than or equal to 7)”; for `CC1=C2CC(C(C)(C)O)CCC2(C)CCC1` (stereo not shown) [Material 329]: “K (Log of liquid dish neat product liquid-air partition coefficient greater than or equal to 7)”.
Turning to `C=C1C2CCC(C)(C)C1CCC(OC)C2` (stereo not shown) [Material 7], the “Log … (Comment Code K/L)” value is “K (Log of liquid dish neat product liquid-air partition coefficient greater than or equal to 7)”.
Same read-out and setting: then `CCCCCCC(CO)C(C)=O` (stereo not shown) [Material 106], with “K (Log of liquid dish neat product liquid-air partition coefficient greater than or equal to 7)”; and `O=C1CCCCCCCCCC/C=C/CCO1` [Material 289], with “K (Log of liquid dish neat product liquid-air partition coefficient greater than or equal to 7)”; and `CC1OC(C)C2Cc3ccccc3C2O1` (stereo not shown) [Material 141], with “K (Log of liquid dish neat product liquid-air partition coefficient greater than or equal to 7)”.
Same read-out and setting: the same measure for `CC1=CC2CC(C=O)C1CC2C(C)C` (stereo not shown) [Material 142]: “K (Log of liquid dish neat product liquid-air partition coefficient greater than or equal to 7)”; for `CCCCCC(=O)OCc1ccco1` [Material 338]: “K (Log of liquid dish neat product liquid-air partition coefficient greater than or equal to 7)”; for `C=CC1(C)CCC(C(C)(C)O)CC1C(=C)C` (stereo not shown) [Material 414]: “K (Log of liquid dish neat product liquid-air partition coefficient greater than or equal to 7)”.
Consider `CCCCCCCCCC(OCC)OCC` [Material 473], for which the “Log … (Comment Code K/L)” value is reported as “K (Log of liquid dish neat product liquid-air partition coefficient greater than or equal to 7)”.
Same read-out and setting: the same measure for `CC1=CC(C)C2C(CCC(C)(C)C2O)C1` (stereo not shown) [Material 39]: “K (Log of liquid dish neat product liquid-air partition coefficient greater than or equal to 7)”.
Still for that read-out and setting: then `C=C1[C@H]2CC[C@H](CO)[C@@]23CC[C@H](C3)C1(C)C` [Material 183], with “K (Log of liquid dish neat product liquid-air partition coefficient greater than or equal to 7)”; and `CCCC(=O)OC(C)(C)Cc1ccccc1` [Material 432], with “K (Log of liquid dish neat product liquid-air partition coefficient greater than or equal to 7)”.
Consider `c1ccc(Oc2ccccc2)cc1` [Material 428], for which the “Log … (Comment Code K/L)” value is on record as “K (Log of liquid dish neat product liquid-air partition coefficient greater than or equal to 7)”.

The same data set, now with this note: code letters K/L of the Comment Code.
In the case of `CC(C)C1=CCC(C)(O)CC1` (stereo not shown) [Material 982], the “Log of liquid dish neat product liquid-air partition coefficient (Comment Code)” value (shortened to “Log … (Comment Code)”) is reported as “K (Log of liquid dish neat product liquid-air partition coefficient greater than or equal to 7)”.
For `C/C=C/c1cc(OC)c(OC)cc1OC` [Material 924], the “Log … (Comment Code)” value is reported as “K (Log of liquid dish neat product liquid-air partition coefficient greater than or equal to 7)”.
On the same count and under the same terms, the same measure for `CC1CCC2(O1)C(C)(C)CCCC2(C)O` (stereo not shown) [Material 893]: “K (Log of liquid dish neat product liquid-air partition coefficient greater than or equal to 7)”; for `CC(=O)C=CC1C(C)=CCC(C)C1(C)C` (stereo not shown) [Material 704]: “K (Log of liquid dish neat product liquid-air partition coefficient greater than or equal to 7)”; for `CCCCCOC(=O)C=Cc1ccccc1` [Material 671]: “K (Log of liquid dish neat product liquid-air partition coefficient greater than or equal to 7)”.
On the same count and under the same terms, the same measure for `O=C(Oc1ccccc1)c1ccccc1` [Material 965]: “K (Log of liquid dish neat product liquid-air partition coefficient greater than or equal to 7)”.
The same measure, in the same setting: then `C=CCCCCCCCCC=O` [Material 871], with “K (Log of liquid dish neat product liquid-air partition coefficient greater than or equal to 7)”; and `CC1(C)C2CC=C(CCC=O)C1C2` (stereo not shown) [Material 781], with “K (Log of liquid dish neat product liquid-air partition coefficient greater than or equal to 7)”; and `CCCCCCCCCC=CC=O` [Material 806], with “K (Log of liquid dish neat product liquid-air partition coefficient greater than or equal to 7)”.
As for `C=C(C)C1CC=C(CO)CC1` (stereo not shown) [Material 948], the “Log … (Comment Code)” value is “K (Log of liquid dish neat product liquid-air partition coefficient greater than or equal to 7)”.
The same measure, in the same setting: the same measure for `C=C(C)[C@@H]1CCC2=CCC[C@@H](C)[C@]2(C)C1` [Material 1105]: “K (Log of liquid dish neat product liquid-air partition coefficient greater than or equal to 7)”; for `CC(C)=CCC/C(C)=C/CC/C(C)=C/CO` [Material 1065]: “K (Log of liquid dish neat product liquid-air partition coefficient greater than or equal to 7)”; for `C=C1CCCC(C)(C)C2C=C(C)CCC12` (stereo not shown) [Material 707]: “K (Log of liquid dish neat product liquid-air partition coefficient greater than or equal to 7)”.
Still for that read-out and setting: then `CC1=CCC(CCC(C)C(C)O)C1(C)C` (stereo not shown) [Material 1023], with “K (Log of liquid dish neat product liquid-air partition coefficient greater than or equal to 7)”; and `C=CCc1ccc2c(c1)OCO2` [Material 1021], with “K (Log of liquid dish neat product liquid-air partition coefficient greater than or equal to 7)”.
On to `CC1(O)CCC2=C(CCCC2(C)C)C1` (stereo not shown) [Material 676], for which the “Log … (Comment Code)” value was “K (Log of liquid dish neat product liquid-air partition coefficient greater than or equal to 7)”.

Values taken from US20170333591A9, “ABSORBENT ARTICLE COMPRISING MALODOR REDUCTION COMPOSITIONS” (The Procter & Gamble Company, priority 2014, published 2017).
